Test: xn = mol fraction of the nth substance listed
Details: 101 kPa, Liquid; for speed of sound: Sing-around technique in a fixed-path interferometer; for mass density: Vibrating tube method

ClC(Cl)C(Cl)Cl [1,1,2,2-tetrachloroethane] + CCCCCCO
Details | mass density, 308.15 K [kg/m3] | mass density, 313.15 K [kg/m3] | speed of sound, 308.15 K [m/s] | speed of sound, 313.15 K [m/s]
x1 = 0.0688 | 853.014 | 849.095 | 1241.8 | 1225.3
x1 = 0.123 | 889.246 | 885.104 | 1220.7 | 1204.1
x1 = 0.2457 | 973.918 | 969.244 | 1176.4 | 1160
x1 = 0.3618 | 1057.58 | 1052.37 | 1138.6 | 1122.3
x1 = 0.4502 | 1123.79 | 1118.17 | 1112.2 | 1096
x1 = 0.5583 | 1208.04 | 1201.9 | 1082.7 | 1066.7
x1 = 0.6518 | 1283.92 | 1277.31 | 1060 | 1044.2
x1 = 0.7068 | 1329.98 | 1323.07 | 1047.9 | 1032.3
x1 = 0.7419 | 1360.06 | 1352.96 | 1040.7 | 1025.1
x1 = 0.7797 | 1392.95 | 1385.63 | 1033.5 | 1018
x1 = 0.8315 | 1438.91 | 1431.3 | 1024.4 | 1009.1
x1 = 0.8718 | 1475.7 | 1467.85 | 1018 | 1002.8
x1 = 0.9179 | 1518.39 | 1510.31 | 1012.1 | 997.14
x1 = 0.9504 | 1549.36 | 1541.12 | 1009.1 | 994.34
x1 = 1 | 1597.75 | 1589.36 | 1008.9 | 994.15

BrCCBr [1,2-dibromoethane] + CCCCCCO
Details | mass density, 308.15 K [kg/m3] | mass density, 313.15 K [kg/m3] | speed of sound, 308.15 K [m/s] | speed of sound, 313.15 K [m/s]
x1 = 0.0402 | 845.2 | 841.335 | 1246.8 | 1230.7
x1 = 0.0682 | 871.58 | 867.573 | 1231.5 | 1215.3
x1 = 0.1276 | 929.152 | 924.828 | 1200.8 | 1184.8
x1 = 0.2056 | 1008.3 | 1003.54 | 1163.8 | 1148.2
x1 = 0.2686 | 1075.32 | 1070.19 | 1136.5 | 1121.2
x1 = 0.3892 | 1211.59 | 1205.72 | 1090.4 | 1075.6
x1 = 0.4277 | 1258.28 | 1252.15 | 1077 | 1062.5
x1 = 0.5444 | 1406.53 | 1399.6 | 1041.2 | 1027.1
x1 = 0.6405 | 1539.27 | 1531.62 | 1016.5 | 1003
x1 = 0.7326 | 1676.75 | 1668.38 | 996.88 | 983.86
x1 = 0.8519 | 1871.88 | 1862.55 | 978.58 | 966.15
x1 = 0.9273 | 2006.87 | 1996.95 | 971.93 | 959.29
x1 = 0.9587 | 2066.14 | 2055.98 | 970.13 | 957.92
x1 = 0.9782 | 2104.45 | 2094.14 | 969.05 | 956.68
x1 = 1 | 2148.2 | 2137.69 | 968.69 | 956.08

CCCCCCO [hexan-1-ol] + ClCCCl
x2 = 0
Details | mass density [kg/m3] | speed of sound [m/s]
308.15 K | 808.056 | 1270.2
313.15 K | 804.397 | 1253.6

CCCCCCO [hexan-1-ol] + ClC(Cl)C(Cl)Cl
x2 = 0
Details | mass density [kg/m3] | speed of sound [m/s]
308.15 K | 808.056 | 1270.2
313.15 K | 804.397 | 1253.6

ClCCCl [1,2-dichloroethane] + CCCCCCO
Details | mass density, 308.15 K [kg/m3] | mass density, 313.15 K [kg/m3] | speed of sound, 308.15 K [m/s] | speed of sound, 313.15 K [m/s]
x1 = 0.037 | 817.675 | 813.926 | 1262.4 | 1246.1
x1 = 0.0769 | 828.456 | 824.595 | 1254.6 | 1238.5
x1 = 0.1499 | 848.617 | 844.565 | 1240.1 | 1223.2
x1 = 0.2147 | 867.202 | 863.005 | 1226.8 | 1210.1
x1 = 0.2935 | 891.704 | 887.346 | 1212.5 | 1195.8
x1 = 0.3952 | 926.131 | 921.594 | 1195.1 | 1177.8
x1 = 0.4532 | 947.081 | 942.428 | 1185.4 | 1167.5
x1 = 0.5596 | 988.685 | 983.815 | 1169.3 | 1151.5
x1 = 0.6113 | 1010.54 | 1005.54 | 1162 | 1144.6
x1 = 0.6971 | 1049.83 | 1044.5 | 1153.5 | 1135.8
x1 = 0.7791 | 1091.94 | 1086.13 | 1148.8 | 1131.2
x1 = 0.8563 | 1135.2 | 1128.8 | 1148 | 1129
x1 = 0.9335 | 1184.46 | 1177.4 | 1151.1 | 1128.9
x1 = 0.979 | 1215.34 | 1207.97 | 1152.8 | 1132.9
x1 = 1 | 1230.88 | 1223.41 | 1155.3 | 1136.2

CCCCCCO [hexan-1-ol] + BrCCBr
x2 = 0
Details | mass density [kg/m3] | speed of sound [m/s]
308.15 K | 808.056 | 1270.2
313.15 K | 804.397 | 1253.6
